Measured values reported in the NIST ThermoML archive (doi:10.1016/j.fluid.2010.05.001).

Columns and labels:
[1] = 101.33 kPa, Liquid, Vibrating tube method
[2] = xn = mol fraction of the nth substance listed; settings: 101 kPa, Liquid, Vibrating tube method

CC1CCCCN1 (stereo unspecified) [2-methylpiperidine]
[1]
Settings | mass density [kg/m3] | molar volume [m3/mol]
288.15 K | 846.703 | 0.0001171
298.15 K | 835.787 | 0.0001187
308.15 K | 826.08 | 0.0001201
318.15 K | 817.349 | 0.0001213
328.15 K | 809.08 | 0.0001226
338.15 K | 801.96 | 0.0001237

CN1CCCCC1 [N-methylpiperidine] + O
[2]
Settings | mass density [kg/m3]
288.15 K, x1 = 0.0101 | 994.829
288.15 K, x1 = 0.0728 | 966.82
288.15 K, x1 = 0.0971 | 957.332
288.15 K, x1 = 0.1499 | 939.294
288.15 K, x1 = 0.2452 | 913.306
288.15 K, x1 = 0.3359 | 895.82
288.15 K, x1 = 0.3895 | 886.349
288.15 K, x1 = 0.55 | 863.074
288.15 K, x1 = 0.66 | 850.384
288.15 K, x1 = 0.7 | 846.317
288.15 K, x1 = 0.8 | 836.071
288.15 K, x1 = 0.9 | 828.075
298.15 K, x1 = 0.0133 | 990.926
298.15 K, x1 = 0.0248 | 985.215
298.15 K, x1 = 0.0299 | 982.27
298.15 K, x1 = 0.0728 | 960.309
298.15 K, x1 = 0.0971 | 949.172
298.15 K, x1 = 0.19 | 917.46
298.15 K, x1 = 0.2452 | 903.811
298.15 K, x1 = 0.3359 | 884.947
298.15 K, x1 = 0.4036 | 873.347
298.15 K, x1 = 0.453 | 865.779
298.15 K, x1 = 0.4767 | 862.238
298.15 K, x1 = 0.505 | 858.158
298.15 K, x1 = 0.595 | 846.184
298.15 K, x1 = 0.6987 | 835.141
298.15 K, x1 = 0.7907 | 826.047
298.15 K, x1 = 0.8822 | 819.375
308.15 K, x1 = 0.0133 | 987.229
308.15 K, x1 = 0.0153 | 986.286
308.15 K, x1 = 0.0248 | 980.469
308.15 K, x1 = 0.0299 | 976.97
308.15 K, x1 = 0.0728 | 952.068
308.15 K, x1 = 0.0971 | 941.377
308.15 K, x1 = 0.1972 | 908.857
308.15 K, x1 = 0.391 | 866.58
308.15 K, x1 = 0.4972 | 849.931
308.15 K, x1 = 0.57 | 840.165
308.15 K, x1 = 0.6987 | 825.724
308.15 K, x1 = 0.78 | 818.342
318.15 K, x1 = 0.00418 | 987.683
318.15 K, x1 = 0.00896 | 985.125
318.15 K, x1 = 0.0153 | 981.488
318.15 K, x1 = 0.018 | 979.939
318.15 K, x1 = 0.02 | 978.288
318.15 K, x1 = 0.15 | 912.237
318.15 K, x1 = 0.1972 | 896.689
318.15 K, x1 = 0.3 | 874.067
318.15 K, x1 = 0.4972 | 840.492
318.15 K, x1 = 0.66 | 821.213
318.15 K, x1 = 0.85 | 804
328.15 K, x1 = 0.00418 | 983.308
328.15 K, x1 = 0.00896 | 980.507
328.15 K, x1 = 0.01 | 979.617
328.15 K, x1 = 0.0133 | 977.934
328.15 K, x1 = 0.3823 | 848.444
328.15 K, x1 = 0.545 | 824.697
328.15 K, x1 = 0.7049 | 807.305
328.15 K, x1 = 0.795 | 800.206
328.15 K, x1 = 0.945 | 790.511

CC1CCCCN1 (stereo unspecified) [2-methylpiperidine] + O
[2]
Settings | mass density [kg/m3]
288.15 K, x1 = 0.022 | 992.158
288.15 K, x1 = 0.0488 | 982.491
288.15 K, x1 = 0.0966 | 965.22
288.15 K, x1 = 0.1901 | 940.03
288.15 K, x1 = 0.3019 | 918.147
288.15 K, x1 = 0.4006 | 904.274
288.15 K, x1 = 0.47 | 896.239
288.15 K, x1 = 0.59 | 883.489
288.15 K, x1 = 0.685 | 874.59
288.15 K, x1 = 0.775 | 866.186
288.15 K, x1 = 0.813 | 863.581
298.15 K, x1 = 0.0506 | 976.147
298.15 K, x1 = 0.0951 | 957.78
298.15 K, x1 = 0.1955 | 930.75
298.15 K, x1 = 0.288 | 911.236
298.15 K, x1 = 0.3958 | 894.275
298.15 K, x1 = 0.45 | 886.977
298.15 K, x1 = 0.4708 | 884.952
298.15 K, x1 = 0.5925 | 871.352
298.15 K, x1 = 0.7 | 860.793
298.15 K, x1 = 0.8043 | 851.545
308.15 K, x1 = 0.0506 | 969.86
308.15 K, x1 = 0.0951 | 951.024
308.15 K, x1 = 0.1955 | 921.38
308.15 K, x1 = 0.288 | 902.606
308.15 K, x1 = 0.388 | 886.089
308.15 K, x1 = 0.463 | 875.982
308.15 K, x1 = 0.585 | 861.756
308.15 K, x1 = 0.6501 | 855.347
318.15 K, x1 = 0.0506 | 963.421
318.15 K, x1 = 0.0951 | 943.575
318.15 K, x1 = 0.1955 | 912.95
318.15 K, x1 = 0.288 | 893.567
318.15 K, x1 = 0.388 | 876.681
318.15 K, x1 = 0.463 | 866.663
318.15 K, x1 = 0.585 | 852.312
318.15 K, x1 = 0.6501 | 846.574
328.15 K, x1 = 0.05 | 957.601
328.15 K, x1 = 0.0982 | 935.269
328.15 K, x1 = 0.3019 | 883.044
328.15 K, x1 = 0.4006 | 867.078
328.15 K, x1 = 0.4585 | 859.202
328.15 K, x1 = 0.5699 | 846.009
328.15 K, x1 = 0.6591 | 836.942
328.15 K, x1 = 0.775 | 826.192
338.15 K, x1 = 0.0951 | 926.141
338.15 K, x1 = 0.1901 | 897.2
338.15 K, x1 = 0.3019 | 873.469
338.15 K, x1 = 0.365 | 863.604
338.15 K, x1 = 0.4585 | 850.39
338.15 K, x1 = 0.5925 | 834.463
338.15 K, x1 = 0.8043 | 816.519

CN1CCCCC1 [N-methylpiperidine]
[1]
Settings | mass density [kg/m3] | molar volume [m3/mol]
288.15 K | 822.237 | 0.0001206
298.15 K | 810.887 | 0.0001223
308.15 K | 803.846 | 0.0001234
318.15 K | 796.931 | 0.0001244
328.15 K | 785.64 | 0.0001262
338.15 K | 781.618 | 0.0001269
